Laboratory results published in publication PMC10913048, “Snapshots of the Reaction Coordinate of a Thermophilic 2′-Deoxyribonucleoside/ribonucleoside Transferase” (ACS Catalysis, 2024).
Values belong to the molecule of their own block, whether it stands above or below them.

Assays:
[1] = target: Chroococcidiopsis thermalis nucleoside 2'-deoxyribosyltransferase (CtNDT), wild type (Chroococcidiopsis thermalis PCC 7203) (UniProt K9TVX3); experiment: SEC; size exclusion of purified CtNDT in solution (Figure S1); conditions not shown
[2] = target: T1, CtNDT (2′-deoxyribonucleoside/ribonucleoside transferase, dNDT) (Chroococcidiopsis thermalis, UniProt K9TVX3, E88A); experiment: stopped-flow tryptophan fluorescence; kon […] ^–[…] s^–[…], koff […] s^–[…]; type: binding; settings: read-out: stopped-flow tryptophan fluorescence; kon 0.76 μM^-1 s^-1, koff 39.3 s^-1
T1 construct: gene Chro_1188

[3] = target: T2, CtNDT (2′-deoxyribonucleoside/ribonucleoside transferase, dNDT) (Chroococcidiopsis thermalis, UniProt K9TVX3); experiment: stopped-flow fluorescence ([…]′-deoxyribosylation […] s^–[…]); HPLC steady-state kinetics (kcat/KM); type: binding
T2 construct: gene Chro_1188
T2 sequence (K9TVX3 1-155): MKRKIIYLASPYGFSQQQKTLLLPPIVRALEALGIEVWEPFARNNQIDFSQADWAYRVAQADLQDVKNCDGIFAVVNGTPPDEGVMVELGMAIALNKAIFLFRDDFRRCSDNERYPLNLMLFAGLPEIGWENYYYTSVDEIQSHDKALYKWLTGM

[4] = target: T2, CtNDT (2′-deoxyribonucleoside/ribonucleoside transferase, dNDT); experiment: crystal structure of the covalent 2-difluoro-2-deoxyribosyl enzyme after cocrystallization; type: binding
[5] = target: T2, CtNDT (2′-deoxyribonucleoside/ribonucleoside transferase, dNDT); experiment: HPLC steady-state transglycosylation kinetics (kcat); type: biochemical
[6] = target: T2, CtNDT (2′-deoxyribonucleoside/ribonucleoside transferase, dNDT); experiment: ITC; stopped-flow fluorescence; type: binding
[7] = target: T3, CtNDT (2′-deoxyribonucleoside/ribonucleoside transferase, dNDT) (Chroococcidiopsis thermalis, UniProt K9TVX3, D62N); experiment: co-crystal structure; type: binding
T3 construct: gene Chro_1188

[8] = target: T2, CtNDT (2′-deoxyribonucleoside/ribonucleoside transferase, dNDT); experiment: ITC; co-crystal structure; type: binding
[9] = substrate: Nc1ncnc2c1ncn2[C@@H]1O[C@H](CO)[C@@H](O)[C@H]1O; experiment: crystal structure of ribosylated enzyme after cocrystallization; HPLC steady-state kinetics (KM); type: biochemical, Chroococcidiopsis thermalis; settings: ribosyl covalent on catalytic glutamate E88; D62 near […]′-OH and […]′-OH
Description: crystal structure of ribosylated enzyme after cocrystallization; HPLC steady-state kinetics (KM) on CtNDT (2′-deoxyribonucleoside/ribonucleoside transferase, dNDT) | determined the structure of a ribosylated enzyme intermediate by cocrystallization of wild-type CtNDT in the presence of Ado

stoichiometry N [1]: 4
Molecule: Chroococcidiopsis thermalis nucleoside 2'-deoxyribosyltransferase (CtNDT), wild type (from UniProt K9TVX3 1-155) (enzyme)

Molecule: Nc1ncnc2c1ncn2[C@H]1C[C@H](O)[C@@H](CO)O1 [2′-deoxyadenosine]
koff [2]: 39.3 ± 0.7 s⁻¹
stopped-flow fluorescence (2′-deoxyribosylation 532 s^-1); HPLC steady-state kin [3]: 50.5 ± 12.2 mM^–1 s^–1

Molecule: Nc1ccn([C@@H]2O[C@H](CO)[C@@H](O)C2(F)F)c(=O)n1 [Gemcitabine]
crystal structure of the covalent 2-difluoro-2-deoxyribosyl enzyme after cocryst [4]: structure of a 2-difluoro-2-deoxy-ribosylated CtNDT after cocrystallization with Gemcitabine

HPLC steady-state transglycosylation kinetics (kcat) [5]: 6.9 ± 0.7 s^–1
Molecule: Nc1nc2c(ncn2[C@H]2C[C@H](O)[C@@H](CO)O2)c(=O)[nH]1 [2′-deoxyguanosine]

Molecule: O=c1[nH]cnc2c([C@@H]3N[C@H](CO)[C@@H](O)[C@H]3O)c[nH]c12 [immucillin-H]
Kd [6]: 78.2 ± 6.6 µM
co-crystal structure [7]: (b) CtNDTD62N bound to immucillin-H

Molecule: O=c1[nH]cnc2c(CN3C[C@H](CO)[C@@H](O)C3)c[nH]c12 [DADme–immucillin-H]
Kd [8]: 0.009 ± 0.005 µM

B1: CtNDT (2′-deoxyribonucleoside/ribonucleoside transferase, dNDT) (Chroococcidiopsis thermalis PCC 7203) (protein)
chain: T2 sequence (K9TVX3 1-155)
Km [9]: 250 ± 50 µM
